Experimental data as given in patent publication US11873290B2, “Pyridazinone compounds and uses thereof” (Edgewise Therapeutics, Inc., priority 2018, dated 2024).

The molecules below were run against skeletal myofibrils (myosin ATPase activity) (assay: Skeletal Myofibril ATPase Assay). Conditions: PK-LDH coupled, absorbance at 340 nm.
Format: biochemical
Experimental: Overview: Myosin ATPase activity is assessed by using a coupled reaction system, in which ADP generated by the myosin ATPase function is coupled to the disappearance of NADH through the pyruvate kinase/lactate dehydrogenase (PK-LDH) system. Myosin ATPase activity produces ADP, which is used as a substrate for PK to produce pyruvate and regenerate ATP. The pyruvate is then used as a substrate by LDH to oxidize NADH to NAD+. The rate of the reaction is monitored through the time-dependent disappearance of NADH using absorbance at 340 nm. Inhibition of ATPase activity by the assayed compounds is indicated by a reduced rate of NADH loss, relative to vehicle-treated controls, over the experimental time window. To assess the selectivity of the assayed compounds for skeletal myofibrils, the compounds are counter-screened in cardiac myofibrils.
Materials: The following stock solutions and reagents were used in the Skeletal Myofibril ATPase Assay:
Stock Solutions of pCa buffer. Combine PIPES, CaCl2, and EGTA solutions with 70 mL of water. Adjust pH to 7.0 and bring final volume to 100 mL.
Skeletal Myofibril ATPase Assay Procedure: BSA, ATP, NADH, PEP, and DTT solutions were thawed at room temperature, then transferred to ice. Pellet-frozen myofibrils (approximately twice the required volume) were transferred into a sufficiently large tube and capped. Myofibrils were thawed by rolling in a water bath for approximately 15 min at room temperature and cooled on ice. Buffers A and B were prepared by adjusting volumes as necessary for required number of wells and stored on ice. 0.5 μL of the compounds to be assayed were added into wells of a 384-well plate. Buffers A and B were mixed by inversion immediately prior to use, then 25 μL of each was dispensed using a Multidrop dispenser (Buffer A first, then Buffer B). The absorbance within the wells was measured at 340 nm, using a kinetic protocol in which the wells are read every 1.5-2 min for 1 h. The reaction rate was qualitatively assessed by subtracting the minimum absorbance value from the maximum value for each well, using either the SoftMax Pro plate reader software or a spreadsheet program such as Excel. Using GraphPad Prism 8.0, the data was normalized, with 100% activity defined as the absorbance change in the 1% DMSO vehicle wells and 0% assigned to no change in absorbance over the course of the experiment. The normalized data were fit to a variable-slope four-parameter logistic model, constraining the bottom to be 0 or greater. Compounds of Table 1 to 4 were tested and results of the assay appear in Table 5 herein. A=IC50 is less than or equal to 10 μM; B=IC50 is greater than 10 μM and less than 100 μM; C=IC50 is greater than 100 μM; […].
`O=c1ccc(-c2cnc(OCC3(F)COC3)nc2)nn1Cc1nnc(-c2ccccc2)s1` [Compound 92, 6-(2-((3-fluorooxetan-3-yl)methoxy)pyrimidin-5-yl)-2-((5-phenyl-1,3,4-thiadiazol-2-yl)methyl)pyridazin-3(2H)-one] was tested, and the IC50 was less than 10 µM. Molecule `O=c1ccc(-c2cnc(OCC(F)(F)F)nc2)nn1Cc1nnc(-c2ccccc2)s1` [Compound 94, 2-((5-phenyl-1,3,4-thiadiazol-2-yl)methyl)-6-(2-(2,2,2-trifluoroethoxy)pyrimidin-5-yl)pyridazin-3(2H)-one] has an IC50 of less than 10 µM. With `O=c1ccc(-c2cnc(OCC(F)(F)F)nc2)nn1Cc1nnc(N2CCCCC2)s1` [Compound 95, 2-((5-(piperidin-1-yl)-1,3,4-thiadiazol-2-yl)methyl)-6-(2-(2,2,2-trifluoroethoxy)pyrimidin-5-yl)pyridazin-3(2H)-one] the IC50 was less than 10 µM. `O=c1ccc(-c2cnc(OCC(F)(F)F)nc2)nn1Cc1ccc2[nH]ncc2c1` [Compound 96, 2-((1H-indazol-5-yl)methyl)-6-(2-(2,2,2-trifluoroethoxy)pyrimidin-5-yl)pyridazin-3(2H)-one] showed an IC50 of less than 10 µM. With `O=c1ccc(-c2cnc(OCCOC(F)(F)F)nc2)nn1Cc1cncc(F)c1` [Compound 97, 2-((5-fluoropyridin-3-yl)methyl)-6-(2-(2-(trifluoromethoxy)ethoxy)pyrimidin-5-yl)pyridazine-3(2H)-one] the IC50 was less than 10 µM. `CCc1ncc(Cn2nc(-c3cnc(OCC(F)(F)F)nc3)ccc2=O)s1` [Compound 99, 2-((2-ethylthiazol-5-yl)methyl)-6-(2-(2,2,2-trifluoroethoxy)pyrimidin-5-yl)pyridazine-3(2H)-one] was tested, and the IC50 was less than 10 µM. With `O=c1ccc(-c2cnc(OCC(F)(F)F)nc2)nn1Cc1cnc(C2CC2)s1` [Compound 100, 2-((2-cyclopropylthiazol-5-yl)methyl)-6-(2-(2,2,2-trifluoroethoxy)pyrimidin-5-yl)pyridazine-3(2H)-one] the IC50 was less than 10 µM. In the case of `Cc1cncc(Cn2nc(-c3cnc(OCC(F)(F)F)nc3)ccc2=O)c1` [Compound 101, 2-((5-methylpyridin-3-yl)methyl)-6-(2-(2,2,2-trifluoroethoxy)pyrimidin-5-yl)pyridazine-3(2H)-one], the IC50 is reported as less than 10 µM. `CSCCOc1ncc(-c2ccc(=O)n(Cc3cncc(F)c3)n2)cn1` [Compound 102] was tested, and the IC50 was less than 10 µM. `O=c1ccc(-c2cnc(OCC3COC3)nc2)nn1Cc1cncc(F)c1` [Compound 103, 2((5-fluoropyridin-3-yl)methyl)-6-(2-(oxetan-3-ylmethoxy)pyrimidin-5-yl)pyridazine-3(2H)-one] was tested, and the IC50 was less than 10 µM. `CC(C)(C)COc1ncc(-c2ccc(=O)n(Cc3cncc(F)c3)n2)cn1` [Compound 104, 2((5-fluoropyridin-3-yl)methyl)-6-(2-(neopentyloxy)pyrimidin-5-yl)pyridazine-3(2H)-one] was tested, and the IC50 was less than 10 µM. `O=c1ccc(-c2cnc(OCC(F)(F)F)nc2)nn1Cc1cnc(C(F)F)s1` [Compound 105] showed an IC50 of less than 10 µM. `O=c1ccc(-c2cnc(OCC(F)F)nc2)nn1Cc1cncc(F)c1` [Compound 106, 6-(2-(2,2-difluoroethoxy)pyrimidin-5-yl)-2-((5-fluoropyridin-3-yl)methyl)pyridazine-3(2H)-one] showed an IC50 of less than 10 µM. With `O=c1ccc(-c2cnc(OCc3cncc(F)c3)nc2)nn1Cc1cncc(F)c1` [Compound 107, 6-(2-((5-fluoropyridin-3-yl)methoxy)pyrimidin-5-yl)-2-((5-fluoropyridin-3-yl)methyl)pyridazin-3(2H)-one] the IC50 was greater than 100 µM. Work on `CSCOc1ncc(-c2ccc(=O)n(Cc3cncc(F)c3)n2)cn1` [Compound 108, 2-((5-fluoropyridin-3-yl)methyl)-6-(2-((methylthio)methoxy)pyrimidin-5-yl)pyridazine-3(2H)-one] yielded an IC50 of less than 10 µM. With `CSCc1ncc(Cn2nc(-c3cnc(OCC(F)(F)F)nc3)ccc2=O)s1` [Compound 109, 2-((2-((methylthio)methyl)thiazol-5-yl)methyl)-6-(2-(2,2,2-trifluoroethoxy)pyrimidin-5-yl)pyridazine-3(2H)-one] the IC50 was less than 10 µM. `CC(C)COc1ncc(-c2ccc(=O)n(Cc3cncc(F)c3)n2)cn1` [Compound 110, 2-((5-fluoropyridin-3-yl)methyl)-6-(2-isobutoxypyrimidin-5-yl)pyridazine-3(2H)-one] was tested, and the IC50 was less than 10 µM. With `CSc1cncc(Cn2nc(-c3cnc(OCC(F)(F)F)nc3)ccc2=O)c1` [Compound 111] the IC50 was less than 10 µM. With `CCCOc1ncc(-c2ccc(=O)n(Cc3cnc(CC)s3)n2)cn1` [Compound 112, 2-((2-ethylthiazol-5-yl)methyl)-6-(2-propoxypyrimidin-5-yl)pyridazine-3(2H)-one] the IC50 was less than 10 µM. `CC(F)(F)COc1ncc(-c2ccc(=O)n(Cc3cncc(F)c3)n2)cn1` [Compound 113, 6-(2-(2,2-difluoropropoxy)pyrimidin-5-yl)-2-((5-fluoropyridin-3-yl)methyl)pyridazine-3(2H)-one] gave an IC50 of less than 10 µM. Work on `CC(C)c1ncc(Cn2nc(-c3cnc(OCC(F)(F)F)nc3)ccc2=O)s1` [Compound 114, 2-((2-isopropylthiazol-5-yl)methyl)-6-(2-(2,2,2-trifluoroethoxy)pyrimidin-5-yl)pyridazine-3(2H)-one] yielded an IC50 of less than 10 µM. In the case of `CC(C)Oc1ncc(-c2ccc(=O)n(Cc3cncc(F)c3)n2)cn1` [Compound 115, 2-((5-f1uoropyridin-3-yl)methyl)-6-(2-isopropoxypyrimidin-5-yl)pyridazine-3(2H)-one], the IC50 is reported as less than 10 µM. With `CCCc1ncc(Cn2nc(-c3cnc(OCC(F)(F)F)nc3)ccc2=O)s1` [Compound 116, 2-((2-propylthiazol-5-yl)methyl)-6-(2-(2,2,2-trifluoroethoxy)pyrimidin-5-yl)pyridazine-3(2H)-one] the IC50 was less than 10 µM. In the case of `O=c1ccc(-c2cnc(OCCC(F)(F)F)nc2)nn1Cc1cncc(F)c1` [Compound 117, 2-((5-f1uoropyridin-3-yl)methyl)-6-(2-(3,3,3-trifluoropropoxy)pyrimidin-5-yl)pyridazine-3(2H)-one], the IC50 is reported as less than 10 µM. For `O=c1ccc(-c2cnc(OCC(F)(F)F)nc2)nn1Cc1cncc(F)n1` [Compound 118, 2-((6-fluoropyrazin-yl)methyl)-6-(2-(2,2,2-trifluoroethoxy)pyrimidin-5-yl)pyridazin-3(2H)-one], the IC50 was less than 10 µM. Work on `O=c1ccc(-c2cnc(OCC3CC3)nc2)nn1Cc1cncc(F)c1` [Compound 119, 6-(2-(cyclopropylmethoxy)pyrimidin-5-yl)-2-((5-fluoropyridin-3-yl)methyl)pyridazine-3(2H)-one] yielded an IC50 of less than 10 µM. `CC[C@H](C)Oc1ncc(-c2ccc(=O)n(Cc3cncc(F)c3)n2)cn1` [Compound 120, (S)-6-(2-(sec-butoxy)pyrimidin-5-yl)-2((5-fluropyridin-3-yl)methyl)pyridazine-3(2H)-one] gave an IC50 of less than 10 µM. For `CC(C)(F)COc1ncc(-c2ccc(=O)n(Cc3cncc(F)c3)n2)cn1` [Compound 121, 6-(2-(2-fluoro-2-methylpropoxy)pyrimidin-5-yl)-2-((5-f1uoropyridin-3-yl)methyl)pyridazine-3(2H)-one], the IC50 was less than 10 µM. Work on `O=c1ccc(-c2cnc(OCC(F)(F)F)nc2)nn1Cc1cnc(C2CCC2)s1` [Compound 122, 2-((2-cyclobutylthiazol-5-yl)methyl)-6-(2-(2,2,2-trifluoroethoxy)pyrimidin-5-yl)pyridazine-3(2H)-one] yielded an IC50 of less than 10 µM.
